Assay results: ChEMBL document CHEMBL1125000, “Phosphorus-containing inhibitors of HMG-CoA reductase. 1. 4-[(2-arylethyl)hydroxyphosphinyl]-3-hydroxy-butanoic acids: a new class of cell-selective inhibitors of cholesterol biosynthesis” (J Med Chem, 1990)

Tests used:
[1] = target: T1, 3-hydroxy-3-methylglutaryl-coenzyme A reductase (Rattus norvegicus, UniProt P51639); assay: Inhibition of rat microsomal HMG-CoA reductase activity by 50%; details: read-out: I50
T1 sequence (P51639 whole entry): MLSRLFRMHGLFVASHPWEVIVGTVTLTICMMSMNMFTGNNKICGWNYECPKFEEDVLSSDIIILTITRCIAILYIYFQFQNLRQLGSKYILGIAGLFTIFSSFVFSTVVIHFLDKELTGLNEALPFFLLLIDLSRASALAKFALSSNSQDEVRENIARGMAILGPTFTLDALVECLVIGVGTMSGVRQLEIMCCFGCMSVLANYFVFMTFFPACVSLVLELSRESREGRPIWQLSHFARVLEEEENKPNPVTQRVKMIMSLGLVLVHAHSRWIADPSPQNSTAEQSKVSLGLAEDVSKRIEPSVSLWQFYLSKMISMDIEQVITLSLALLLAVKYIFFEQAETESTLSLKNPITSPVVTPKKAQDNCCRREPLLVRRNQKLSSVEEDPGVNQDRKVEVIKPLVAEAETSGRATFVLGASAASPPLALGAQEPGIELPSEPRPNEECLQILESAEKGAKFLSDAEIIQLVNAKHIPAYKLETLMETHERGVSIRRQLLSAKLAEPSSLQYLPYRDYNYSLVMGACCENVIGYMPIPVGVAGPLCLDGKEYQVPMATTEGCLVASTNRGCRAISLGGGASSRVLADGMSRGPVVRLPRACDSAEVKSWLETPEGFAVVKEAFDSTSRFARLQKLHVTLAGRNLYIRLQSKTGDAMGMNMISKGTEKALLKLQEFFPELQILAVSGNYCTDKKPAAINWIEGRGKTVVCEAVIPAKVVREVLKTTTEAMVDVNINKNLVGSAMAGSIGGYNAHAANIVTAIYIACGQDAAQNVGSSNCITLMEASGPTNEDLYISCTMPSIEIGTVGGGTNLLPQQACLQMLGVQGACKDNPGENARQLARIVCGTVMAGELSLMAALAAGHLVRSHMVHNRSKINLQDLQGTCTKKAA

[2] = system: Rattus norvegicus; assay: Inhibitory activity for de novo cholesterol synthesis from [14C]acetate was determined in rat after intravenous administration (in vivo); format: functional
[3] = species on record: Rattus norvegicus; assay: Compound was tested for 50% inhibition of cholesterol synthesis in isolated rat hepatocytes.; format: functional; details: Hepatocyte, read-out: I50
[4] = species on record: Homo sapiens; assay: Compound was tested for 50% inhibition of cholesterol synthesis in human skin fibroblasts.; format: functional; details: read-out: I50
[5] = system: Rattus norvegicus; assay: Inhibitory activity for de novo cholesterol synthesis from [14C]acetate was determined in rat after oral administration (in vivo); format: functional

IC50 [1] [µM]	SMILES	ED50 [2] [mg/kg]	IC50 [3] [µM]	IC50 [4] [µM]	ED50 [5] [mg/kg]
150	Cc1cc(C)c(CCCP(=O)(O)C[C@@H](O)CC(=O)O)c(-c2ccc(F)c(C)c2)c1	–	–	–	–
21.6	COP(=O)(C[C@@H](O)CC(=O)O)OCc1c(C)cc(C)cc1-c1ccc(F)c(C)c1 (stereo partly specified)	–	–	–	–
0.0067	Cc1cc(C)c(/C=C/P(=O)(O)C[C@@H](O)CC(=O)O)c(-c2ccc(F)c(C)c2)c1	–	–	–	–
0.013	CCc1c(CCP(=O)(O)C[C@@H](O)CC(=O)O)n(-c2ccc(F)cc2)c2ccccc12	–	–	–	–
0.0038	Cc1cc(-c2ccc(F)c(C)c2)c(CCP(=O)(O)C[C@@H](O)CC(=O)O)c(C(C)C)c1	–	–	–	–
0.0085	Cc1cc(-c2ccc(F)c(C)c2)c(C#CP(=O)(O)C[C@@H](O)CC(=O)O)c(C(C)C)c1	–	–	–	–
4.6	COP(=O)(CCc1c(C)cc(C)cc1-c1ccc(F)c(C)c1)C[C@@H](O)CC(=O)O (stereo partly specified)	–	–	–	–
0.0022	CC(C)c1c(C#CP(=O)(O)C[C@@H](O)CC(=O)O)n(-c2ccc(F)cc2)c2ccccc12	0.09	0.093	8.9	1.1
3	Cc1cc(C)c(/C=C\P(=O)(O)C[C@@H](O)CC(=O)O)c(-c2ccc(F)c(C)c2)c1	–	–	–	–
0.162	Cc1cc(C)c(COP(=O)(O)C[C@@H](O)CC(=O)O)c(-c2ccc(F)c(C)c2)c1	0.14	0.26	327	> 10
0.0875	CCc1c(C#CP(=O)(O)C[C@@H](O)CC(=O)O)n(-c2ccc(F)cc2)c2ccccc12	–	–	–	–
0.003	O=C(O)C[C@H](O)CP(=O)(O)C#CC1=C(c2ccc(F)cc2)c2ccccc2C12CCCCC2	–	–	–	–
0.0019	CC(C)c1c(/C=C/P(=O)(O)C[C@@H](O)CC(=O)O)n(-c2ccc(F)cc2)c2ccccc12	–	–	–	–
–	CC[C@H](C)C(=O)O[C@H]1C[C@@H](C)C=C2C=C[C@H](C)[C@H](CC[C@@H](O)C[C@@H](O)CC(=O)[O-])[C@H]21.[Na+]	0.033	0.146	0.019	0.4
0.0028	O=C(O)C[C@H](O)CP(=O)(O)C#CC1=C(c2ccc(F)cc2)c2ccccc2C12CCCC2	0.027	0.245	11	0.38
0.0012	Cc1cc(-c2ccc(F)c(C)c2)c(COP(=O)(O)C[C@@H](O)CC(=O)O)c(C(C)C)c1	–	–	–	–
0.297	Cc1cc(C)c(C#CP(=O)(O)C[C@@H](O)CC(=O)O)c(-c2ccc(F)c(C)c2)c1	–	–	–	–
0.024	CC(C)n1c(CCP(=O)(O)C[C@@H](O)CC(=O)O)c(-c2ccc(F)cc2)c2ccccc21	–	–	–	–
0.12	CC(C)c1c(CCP(=O)(O)C[C@@H](O)CC(=O)O)n(-c2ccc(F)cc2)c2ccccc12	–	–	–	–
0.0021	O=C(O)C[C@H](O)CP(=O)(O)/C=C/C1=C(c2ccc(F)cc2)c2ccccc2C12CCCC2	–	–	–	–
0.026	CC(C)n1c(/C=C/P(=O)(O)C[C@@H](O)CC(=O)O)c(-c2ccc(F)cc2)c2ccccc21	–	–	–	–
0.07	O=C(O)C[C@H](O)CP(=O)(O)C#CC1=C(c2ccc(F)cc2)c2ccccc2C12CC2	–	–	–	–
0.015	Cc1cc(C)c(CCP(=O)(O)C[C@@H](O)CC(=O)O)c(-c2ccc(F)c(C)c2)c1	0.05	0.085	64	6.7
0.006	CC(C)n1c(C#CP(=O)(O)C[C@@H](O)CC(=O)O)c(-c2ccc(F)cc2)c2ccccc21	–	–	–	–
89.3	Cc1cc(C)c(CP(=O)(O)C[C@@H](O)CC(=O)O)c(-c2ccc(F)c(C)c2)c1	–	–	–	–
4.5	Cc1cc(C)c(OCP(=O)(O)C[C@@H](O)CC(=O)O)c(-c2ccc(F)c(C)c2)c1	–	–	–	–
0.026	CC[C@H](C)C(=O)O[C@H]1C[C@H](O)C=C2C=C[C@H](C)[C@H](CC[C@@H](O)C[C@@H](O)CC(=O)[O-])[C@H]21.[Na+] [PRAVASTATIN SODIUM]	0.053	0.1	3.1	0.75

SMILES	IC50 [1] [µM]	ED50 [2] [mg/kg]	IC50 [3] [µM]	IC50 [4] [µM]	ED50 [5] [mg/kg]
COP(=O)(C[C@@H](O)CC(=O)O)NCc1c(C)cc(C)cc1-c1ccc(F)c(C)c1 (stereo partly specified)	70.5	–	–	–	–
